Patent publication US20060205673A1, “2-Amino-3-hydroxy-4-tert-leucyl-amino-5-phenyl-pentanoic acid amide derivatives” (priority 2000, published 2006)

molecular target: T1, purified human placenta 20S proteasome (Homo sapiens, UniProt P28074); assay: Inhibition of the chymotrypsin-like activity of the 20S proteasome (Suc-LLVY-AMC hydrolysis); format: biochemical; details: Suc-LLVY-AMC substrate, 60 min preincubation at room temperature, Table 1
T1 construct: 1 μl purified human placenta 20S proteasome; tissue Diabetes Forschungsinstitut, Düsseldorf, Germany; host or cells: human placenta
Text: It is based on the hydrolysis of the fluorogenic peptide Suc-LLVY-AMC (Succinyl-leucine-leucine-valine-tyrosine-7-amino-4-methyl-coumarin), which is cleaved exclusively at the Y-AMC bond by the 20S proteasome. Hydrolysis of this peptide is accompanied by an increase in fluorescence intensity [λex (excitation wavelength): 355 nm; λem (emission wavelength): 460 nm] due to release of the internally quenched […] fluorescence that accompanies diffusion apart of the hydrolysis product Suc-LLVY.
2 μl of a 1 mM solution of a test compound in DMSO (dimethylsulfoxide, 20 μM final concentration in the well) are preincubated for 60 min at room temperature in black 96-well microtiter plates together with a mixture of 1 μl purified human placenta 20S proteasome (Diabetes Forschungsinstitut, Düsseldorf, Germany; about 100 ng proteasome, depending on the proteasome preparation) and 47 μl buffer-Ca [5 mM CaCl2, 20 mM Tris/HCl (Tris-(hydroxymethyl)-amino-methane hydrochloride) pH 8.0]. 3 μl of a 2.67 mM solution of Suc-LLVY-AMC (Bachem, Switzerland) in DMSO (80 μM final concentration in the well) and 47 μl buffer-Ca are mixed and added. The resulting mixture is incubated for 3-24 h at 37° C. If desired, proteolysis of the substrate can be stopped by addition of 50 μl stop solution (100 mM monochloroacetic acid, 130 mM NaOH, 100 mM acetic acid, pH=4.3). The fluorescence is monitored with a FLUOROSKAN ASCENT™ microtiter plate reader.
To each measure series two control experiments have to be carried out:
1.) 0% value: 2 μl DMSO are used in the above described assay instead of 2 μl of a 1 mM solution of a test compound in DMSO and 48 μl buffer-Ca instead of a mixture of 47 μl buffer-Ca and 1 μl purified proteasome.
2.) 100% value: in the above described assay 2 μl DMSO are used instead of 2 μl of a 1 mM solution of the test compound in DMSO.
The IC50 value is defined as that concentration of a compound at which the remaining activity is 50%.

| IC50 | SMILES |
| --- | --- |
| 0.011 µM | COc1ccc(CNC(=O)[C@@H](NC(=O)[C@H](NCc2cc(OC)c(OC)c(OC)c2)[C@H](O)[C@H](Cc2ccccc2)NC(=O)[C@@H](NC(=O)Cc2cccc3ccccc23)C(C)(C)C)C(C)C)c(O)c1 [Example 12, (2R,3R,4S)-4-[(S)-3,3-Dimethyl-2-(2-naphthalen-1-yl-acetylamino)-butyrylamino]-3-hydroxy-5-phenyl-2-(3,4,5-trimethoxy-benzylamino)-pentanoic acid [(S)-1-(2-hydroxy-4-methoxy-benzylcarbamoyl)-2-methyl-propyl]-amide] |
| 0.26 µM | COc1ccc(CNC(=O)[C@@H](NC(=O)[C@H](NCc2cccc3ccccc23)[C@H](O)[C@H](Cc2ccccc2)NC(=O)[C@@H](NC(=O)OCc2ccccc2)C(C)(C)C)C(C)C)c(O)c1 [Example 1, ((S)-1-{(1S,2R,3R)-1-Benzyl-2-hydroxy-3-[(S)-1-(2-hydroxy-4-methoxy-benzylcarbamoyl)-2-methyl-propylcarbamoyl]-3-[(naphthalen-1-ylmethyl)-amino]-propylcarbamoyl}-2,2-dimethyl-propyl)-carbamic acid benzyl ester] |
| 0.2 µM | COc1ccc(CNC(=O)[C@@H](NC(=O)[C@H](NCc2cc(OC)c(OC)cc2OC)[C@H](O)[C@H](Cc2ccccc2)NC(=O)[C@@H](NC(=O)OCc2ccccc2)C(C)(C)C)C(C)C)c(O)c1 [Example 10, {(S)-1-[(1S,2R,3R)-1-Benzyl-2-hydroxy-3-[(S)-1-(2-hydroxy-4-methoxy-benzylcarbamoyl)-2-methyl-propylcarbamoyl]-3-(2,4,5-trimethoxy-benzylamino)-propylcarbamoyl]-2,2-dimethyl-propyl}-carbamic acid benzyl ester] |
| 0.19 µM | COc1cc(CN[C@@H](C(=O)N[C@H](C(=O)NCc2ccc(OC)cc2O)C(C)C)[C@H](O)[C@H](Cc2ccccc2)NC(=O)[C@@H](NC(=O)OCc2ccccc2)C(C)(C)C)cc(OC)c1 [Example 9, ((S)-1-{(1S,2R,3R)-1-Benzyl-3-(3,5-dimethoxy-benzylamino)-2-hydroxy-3[(S)-1-(2-hydroxy-4-methoxy-benzylcarbamoyl)-2-methyl-propylcarbamoyl]-propylcarbamoyl}-2,2-dimethyl-propyl)-carbamic acid benzyl ester] |
| 0.15 µM | COc1ccc(CNC(=O)[C@@H](NC(=O)[C@H](NCc2cccc3ccccc23)[C@H](O)[C@H](Cc2ccccc2)NC(=O)[C@@H](NC(=O)Cc2cccc3ccccc23)C(C)(C)C)C(C)C)c(O)c1 [Example 15, (2R,3R,4S)-4-[(S)-3,3-Dimethyl-2-(2-naphthalen-1-yl-acetylamino)-butyrylamino]-3-hydroxy-2-[(naphthalen-1-ylmethyl)-amino]-5-phenyl-pentanoic acid [(S)-1-(2-hydroxy-4-methoxy-benzylcarbamoyl)-2-methyl-propyl]-amide] |
| 1.6 µM | COc1ccc(CNC(=O)[C@@H](NC(=O)[C@H](NCc2ccc(OC)cc2OC)[C@H](O)[C@H](Cc2ccccc2)NC(=O)[C@@H](NC(=O)OCc2ccccc2)C(C)(C)C)C(C)C)c(O)c1 [Example 5, ((S)-1-{(1S,2R,3R)-1-Benzyl-3-(2,4-dimethoxy-benzylamino)-2-hydroxy-3-[(S)-1-(2-hydroxy-4-methoxy-benzylcarbamoyl)-2-methyl-propylcarbamoyl]-propylcarbamoyl}-2,2-dimethyl-propyl)-carbamic acid benzyl ester] |
| 0.1 µM | COc1ccc(CNC(=O)[C@@H](NC(=O)[C@H](NCc2ccc(OC)c(OC)c2OC)[C@H](O)[C@H](Cc2ccccc2)NC(=O)[C@@H](NC(=O)OCc2ccccc2)C(C)(C)C)C(C)C)c(O)c1 [Example 7, {(S)-1-[(1S,2R,3R)-1-Benzyl-2-hydroxy-3-[(S)-1-(2-hydroxy-4-methoxy-benzylcarbamoyl)-2-methyl-propylcarbamoyl]-3-(2,3,4-trimethoxy-benzylamino) -propylcarbamoyl]-2,2-dimethyl-propyl}-carbamic acid benzyl ester] |
| 0.15 µM | COc1ccc(CNC(=O)[C@@H](NC(=O)[C@H](NCc2ccc(OC)c(OC)c2)[C@H](O)[C@H](Cc2ccccc2)NC(=O)[C@@H](NC(=O)OCc2ccccc2)C(C)(C)C)C(C)C)c(O)c1 [Example 8, ((S)-1-{(1S,2R,3R)-1-Benzyl-3-(3,4-dimethoxy-benzylamino)-2-hydroxy-3-[(S)-1-(2-hydroxy-4-methoxy-benzylcarbamoyl)-2-methyl-propylcarbamoyl]-propylcarbamoyl}-2,2-dimethyl-propyl)-carbamic acid benzyl ester] |
| 0.029 µM | COc1ccc(CNC(=O)[C@@H](NC(=O)[C@H](NCc2cc(OC)c(OC)cc2OC)[C@H](O)[C@H](Cc2ccccc2)NC(=O)[C@@H](NC(=O)Cc2cccc3ccccc23)C(C)(C)C)C(C)C)c(O)c1 [Example 14, (2R,3R,4S)-4-[(S)-3,3-Dimethyl-2-(2-naphthalen-1-yl-acetylamino)-butyrylamino]-3-hydroxy-5-phenyl-2-(2,4,5-trimethoxy-benzylamino)-pentanoic acid [(S)-1-(2-hydroxy-4-methoxy-benzylcarbamoyl)-2-methyl-propyl]-amide] |
| 0.16 µM | COc1ccc(CNC(=O)[C@@H](NC(=O)[C@H](NCc2ccc(N(C)C)cc2)[C@H](O)[C@H](Cc2ccccc2)NC(=O)[C@@H](NC(=O)Cc2cccc3ccccc23)C(C)(C)C)C(C)C)c(O)c1 [Example 16, (2R,3R,4S)-2-(4-Dimethylamino-benzylamino)-4-[(S)-3,3-dimethyl-2-(2-naphthalen-1-yl-acetylamino)-butyrylamino]-3-hydroxy-5-phenyl-pentanoic acid [(S)-1-(2-hydroxy-4-methoxy-benzylcarbamoyl)-2-methyl-propyl]-amide] |
| 0.6 µM | COc1ccc(CNC(=O)[C@@H](NC(=O)[C@H](NCc2ccc(N(C)C)cc2)[C@H](O)[C@H](Cc2ccccc2)NC(=O)[C@@H](NC(=O)OCc2ccccc2)C(C)(C)C)C(C)C)c(O)c1 [Example 2, ((S)-1-{(1S,2R,3R)-1-Benzyl-3-(4-dimethylamino-benzylamino)-2-hydroxy-3-[(S)-1-(2-hydroxy-4-methoxy-benzylcarbamoyl)-2-methyl-propylcarbamoyl]-propylcarbamoyl}-2,2-dimethyl-propyl)-carbamic acid benzyl ester] |
| 0.8 µM | COc1ccc(CN[C@@H](C(=O)N[C@H](C(=O)NCc2cc(Br)ccc2O)C(C)C)[C@H](O)[C@H](Cc2ccccc2)NC(=O)[C@@H](NC(=O)OCc2ccccc2)C(C)(C)C)cc1 [Example 3, {(S)-1-[(1S,2R,3R)-1-Benzyl-3-[(S)-1-(5-bromo-2-hydroxy-benzyl-carbamoyl)-2-methyl-propylcarbamoyl]-2-hydroxy-3-(4-methoxy-benzylamino)-propylcarbamoyl]-2,2-dimethyl-propyl}-carbamic acid benzyl ester] |
| 0.018 µM | COc1ccc(CNC(=O)[C@@H](NC(=O)[C@H](NCc2ccc(OC)c(OC)c2OC)[C@H](O)[C@H](Cc2ccccc2)NC(=O)[C@@H](NC(=O)Cc2cccc3ccccc23)C(C)(C)C)C(C)C)c(O)c1 [Example 13, (2R,3R,4S)-4-[(S)-3,3-Dimethyl-2-(2-naphthalen-1-yl-acetylamino)-butyrylamino]-3-hydroxy-5-phenyl-2-(2,3,4-trimethoxy-benzylamino)-pentanoic acid [(S)-1-(2-hydroxy-4-methoxy-benzylcarbamoyl)-2-methyl-propyl]-amide] |
